The source of these data is patent US4906659A, “Antibiotic tan-749, its derivatives, production and use thereof” (Takeda Chemical Industries, Ltd., priority 1985, dated 1990).

A word on the MIC: it is the smallest concentration in the dilution series that meets the test's criterion for growth inhibition. Lower therefore signals a more susceptible organism. For orientation: ED50 means the dose that gives a 50% effect, or the effect in half of the subjects. A high value points to weaker potency.

In one assay the test system is S. aureus 308A-1. Nature of the assay: Antibacterial activity against gram-positive bacteria, MIC (Table 3). It counts as cell-based. Particulars: Staphylococcus aureus, 308A1; Tripticase Soy Agar; inoculum size 10^8 cfu/ml. The text has this: The antibacterial activities against gram-positive bacteria (S. aureus 308A-1) of some compounds of the invention are as shown in Table 3.
*Medium: Tripticase Soy Agar Inoculum size: 10^8 cfu/ml
For the compound `C=C/C=C(\C)C(=O)NC[C@H](O)C[C@@H](N)CC(=O)NCCC(=N)N` [112b], the MIC is over 100 µg/mL.

Turning to `N=C(N)CCNC(=O)C[C@H](N)C[C@@H](O)CNC(=O)/C=C/C=C\Cl` [120b], the MIC was over 100 µg/mL.

`C/C=C\C=C\C(=O)NC[C@H](O)C[C@@H](N)CC(=O)NCC(C)C(=N)N` (stereo partly drawn) [124b] registered an MIC of over 100 µg/mL.

On to `C/C=C\C=C\C(=O)NC[C@H](O)C[C@@H](N)CC(=O)NCCC(=N)NC` [125b], for which the MIC is over 100 µg/mL.

Compound `C/C=C\C=C\C(=O)NC[C@H](O)C[C@H](CC(=O)NCCC(=N)N)NC(=O)CN` [133b] returned an MIC of over 100 µg/mL.

In turn, `C/C=C\C=C\C(=O)NC[C@H](O)C[C@H](CC(=O)NCCC(=N)N)NC(=O)C(N)CO` (stereo partly drawn) [134b] came in with an MIC of over 100 µg/mL.

`C/C=C\C=C\C(=O)NC[C@H](O)C[C@H](CC(=O)NCCC(=N)N)NC(=O)[C@H](C)N` [136b] yielded an MIC of over 100 µg/mL.

The compound `CN(CC(=O)O)NC(=O)C[C@H](N)C[C@@H](O)CN` [Negamycin, 2-(3R,5R)-3,6-diamino-5-hydroxyhexanoyl-1-methylhydrazinoacetic acid, reference compound] came in with a minimum inhibitory concentration (MIC) of over 100 µg/mL.

As for `C/C=C\C=C\C(=O)NCC(O)CC(CC(=O)NCCC(=N)N)NC` (stereo not drawn) [compound 80], the MIC was over 100 µg/mL.

In turn, `C/C=C\C=C\C(=O)NCC(O)CC(CC(=O)NCCC(=N)N)NCC` (stereo not drawn) [compound 82] gave an MIC of over 100 µg/mL.

A further assay relates to S. aureus 308A-1. The experiment in a line: Antibacterial activity in mice, ED50 (Table 3). In kind it is in vivo. Particulars: Staphylococcus aureus, 308A1, sc, S.C. The text has this: The antibacterial activities against gram-positive bacteria (S. aureus […]-1) of some compounds of the invention are as shown in Table 3. | **mice, S.C.,
The compound `C=C/C=C(\C)C(=O)NC[C@H](O)C[C@@H](N)CC(=O)NCCC(=N)N` [112b] displayed an ED50 of 6.25 mg/kg.

Take `N=C(N)CCNC(=O)C[C@H](N)C[C@@H](O)CNC(=O)/C=C/C=C\Cl` [120b]: it took a dose of 8.61 mg/kg to reach the 50% effect level (ED50). This ED50 and that of the compound before are within 1.5-fold of each other.

In the case of `C/C=C\C=C\C(=O)NC[C@H](O)C[C@@H](N)CC(=O)NCC(C)C(=N)N` (stereo partly drawn) [124b], the ED50 is 7.2 mg/kg. The ED50 values of the last two compounds are within 1.5-fold of each other.

Take `C/C=C\C=C\C(=O)NC[C@H](O)C[C@@H](N)CC(=O)NCCC(=N)NC` [125b]: the ED50 worked out at 19.2 mg/kg.

The compound `C/C=C\C=C\C(=O)NC[C@H](O)C[C@H](CC(=O)NCCC(=N)N)NC(=O)CN` [133b] came in with an ED50 of 8.41 mg/kg.

Take `C/C=C\C=C\C(=O)NC[C@H](O)C[C@H](CC(=O)NCCC(=N)N)NC(=O)C(N)CO` (stereo partly drawn) [134b]: the ED50 was 7.79 mg/kg.

For `C/C=C\C=C\C(=O)NC[C@H](O)C[C@H](CC(=O)NCCC(=N)N)NC(=O)[C@H](C)N` [136b], the ED50 is 8.16 mg/kg. This ED50 and that of the compound before are within 1.5-fold of each other.

Take `C/C=C\C=C\C(=O)NCC(O)CC(CC(=O)NCCC(=N)N)NCC` (stereo not drawn) [compound 82]: the ED50 came out at 25 mg/kg.
